Data: patent US20250129067A1 (Progentos Therapeutics, Inc., priority 2021, published 2025)

Tests used:
[1] = system: Oligodendrocyte progenitor cells (OPCs); assay: In vitro OPC differentiation assay, MBP expression (immunocytochemistry); settings: 72 hours of treatment; fold change over vehicle
PDGFRα = PDGFRα (Homo sapiens (Human), UniProt P16234); assay: PDGFRα kinase enzyme assay (Promega PDGFRα Kinase Enzyme System, ADP-Glo); type: biochemical; settings: 11-point dose response, 10,000 nM to 0.169 nM, 150 uM ATP, BLQ = below limit of quantitation; for IC50: read-out: IC50 Values on PDGFRα Kinase Inhibition, IC50
PDGFRα, sequence (P16234 24-1089): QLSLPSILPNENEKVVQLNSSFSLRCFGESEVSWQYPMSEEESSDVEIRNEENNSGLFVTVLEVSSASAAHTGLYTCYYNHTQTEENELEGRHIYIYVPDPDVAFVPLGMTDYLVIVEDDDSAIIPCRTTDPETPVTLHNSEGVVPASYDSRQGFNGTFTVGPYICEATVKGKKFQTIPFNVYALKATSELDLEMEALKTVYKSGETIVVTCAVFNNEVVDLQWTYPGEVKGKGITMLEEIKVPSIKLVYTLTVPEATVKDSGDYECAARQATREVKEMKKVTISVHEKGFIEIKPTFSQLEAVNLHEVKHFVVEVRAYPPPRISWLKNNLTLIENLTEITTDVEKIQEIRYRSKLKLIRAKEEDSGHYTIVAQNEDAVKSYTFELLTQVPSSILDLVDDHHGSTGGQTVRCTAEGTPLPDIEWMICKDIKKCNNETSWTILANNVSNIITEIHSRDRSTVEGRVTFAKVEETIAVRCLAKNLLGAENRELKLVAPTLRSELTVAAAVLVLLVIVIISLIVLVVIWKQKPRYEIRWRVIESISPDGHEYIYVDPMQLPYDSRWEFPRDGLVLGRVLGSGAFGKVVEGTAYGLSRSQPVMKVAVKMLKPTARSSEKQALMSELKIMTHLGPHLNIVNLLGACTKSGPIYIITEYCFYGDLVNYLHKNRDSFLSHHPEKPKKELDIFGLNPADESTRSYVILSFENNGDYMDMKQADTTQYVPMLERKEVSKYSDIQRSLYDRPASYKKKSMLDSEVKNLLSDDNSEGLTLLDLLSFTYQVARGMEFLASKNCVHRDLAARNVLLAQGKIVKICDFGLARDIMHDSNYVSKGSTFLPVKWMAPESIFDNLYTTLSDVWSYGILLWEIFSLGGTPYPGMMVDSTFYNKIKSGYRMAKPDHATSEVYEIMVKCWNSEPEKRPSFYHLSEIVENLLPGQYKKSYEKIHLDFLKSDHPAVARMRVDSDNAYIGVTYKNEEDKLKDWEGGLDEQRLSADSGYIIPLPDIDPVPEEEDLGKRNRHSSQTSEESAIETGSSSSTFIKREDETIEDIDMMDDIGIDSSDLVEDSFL
Summary of the method: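 Read-out was ADP-Glo: remaining ATP depleted, ADP converted to luminescence and compared with a standard curve.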

[2] = system: GPR17+ cells (newly differentiated oligodendrocytes); assay: In vivo OPC differentiation, GPR17+ cells in brain; settings: Mus musculus, po, 24 h, read-out: GPR17 Fold Induction (Over Vehicle)
[3] = system: Oligodendrocyte progenitor cells (OPCs); assay: In vitro OPC differentiation assay, GPR17 expression (immunocytochemistry); settings: 72 hours, fold change over vehicle; for GPR17 Fold Induction (Over Vehicle; 3 μM): 3 μM (10× concentration, final 0.3 μM); for GPR17 Fold Induction (Over Vehicle; 5 μM): 5 μM (10× concentration, final 0.5 μM)
Protocol: To assess the effects of the PDGFRα inhibitors on OPC differentiation, primary OPCs were cultured and exposed to compounds. The number of newly generated oligodendrocytes was assessed by monitoring GPR17 expression. GPR17 is preferentially expressed in actively differentiating oligodendrocytes, allowing them to be distinguished from precursors and more differentiated oligodendrocytes.
Cortices from postnatal day (P) 1-3 rats were dissected and collected into ice cold Hank's Balanced Salt Solution (HBSS). […] Briefly, the cortical cell suspension was centrifuged and washed with buffer (0.5% BSA in PBS) and labeled with Anti-A2B^5 MicroBeads (10 μL beads per 1×10^7 cells) for 15 minutes at 4° C. Following the incubation, cells were washed once with BSA buffer to remove unlabeled beads. A2B^5 positive cells were eluted on the column using the AutoMACS® (Miltenyi, as per manufacturer's protocol using “Possel-s” program). Eluted cells were further washed twice with OPC growth media. Cell counts were performed using Countess III cell counter (ThermoFisher; AMQAX2000) and cells were plated.
The plates were allowed to sit at room temperature for 15 minutes to ensure proper dispersion of cells in a well. The plates were then transferred to the incubator (37° C.; 5% CO2).
Cells were then incubated for 72 hours at 37° C., 5% CO2 before immunostaining for GPR17 marker expression.
Following 72 hours in culture, cells were fixed with 4% paraformaldehyde for 15 minutes and then washed three times in Dulbecco's phosphate buffered saline (DPBS). Prior to immunostaining, cells were treated with a blocking solution (10% normal goat serum containing 1% BSA and 0.1% Triton® X-100 in DPBS) for 15 minutes at room temperature. Primary antibody (anti-GPR17 at 1:2000; Origene TA811615) was applied to cells overnight at 4° C. in incubation solution containing 1% normal goat serum, 1% BSA, and 0.1% Triton X-100 in DPBS. […] The secondary antibody was applied in incubation solution for 2 hours at room temperature, protected from light.
The number of differentiated GPR17+ cells was normalized to the total nuclei count and percent differentiated GPR17+ cells were reported. Statistical analysis was done using one-way ANOVA with multiple comparisons and post-hoc Tukey test in GraphPad Prism (GraphPad Software).

| SMILES | MBP Fold Induction (Over vehicle) [1] | IC50 (PDGFRα) [µM] | GPR17 Fold Induction (Over Vehicle; 3 μM) [3] | GPR17 Fold Induction (Over Vehicle; 5 μM) [3] | IC50 Values on PDGFRα Kinase Inhibition, IC50 (nM) (PDGFRα) | fold induction at 3 mg/kg [2] | fold induction at 3.3 mg/kg [2] | fold induction at 30 mg/kg [2] | fold induction at 10 mg/kg [2] |
| --- | --- | --- | --- | --- | --- | --- | --- | --- | --- |
| C[C@@H](OC(=O)N1CCN(c2cnn3cc(-c4cnn(C)c4)ncc23)CC1)c1ccccc1 [Compound 49, (R)-1-phenylethyl 4-(6-(1-methyl-1H-pyrazol-4-yl)pyrazolo[1,5-a]pyrazin-3-yl)piperazine-1-carboxylate] | 2.45 | 0.0595 | 9.99 | 4.42 | – | – | 1.68 | – | – |
| Cn1cc(-c2ccc3c(N4CCN(C(=O)OCCc5ccccc5)CC4)cnn3c2)cn1 [Compound 30, 2-phenylethyl-4-[6-(1-methyl-1H-pyrazol-4-yl)pyrazolo[1,5-a]pyridin-3-yl]piperazine-1-carboxylate] | 1.78 | 0.999 | 6.05 | 3.25 | – | – | 9.91 | – | – |
| Cn1cc(-c2ccc3c(N4CCN(c5ncc(C(O)c6ccccn6)cn5)CC4)cnn3c2)cn1 (centres unmarked) [Compound 59, (2-{4-[6-(1-methyl-1H-pyrazol-4-yl)pyrazolo[1,5-a]pyridin-3-yl]piperazin-1-yl}pyrimidin-5-yl) (pyridin-2-yl)methanol] | 2.56 | 0.168 | 5.49 | – | – | 10.6 | – | – | – |
| OCCn1cc(-c2ccc3c(N4CCN(c5ncc(Cc6ccccc6)cn5)CC4)cnn3c2)cn1 [Compound 55, 2-(4-{3-[4-(5-benzylpyrimidin-2-yl)piperazin-1-yl]pyrazolo[1,5-a]pyridin-6-yl}-1H-pyrazol-1-yl)ethanol] | 5.64 | 0.12 | 8.97 | – | – | 6.43 | – | – | – |
| Cn1cc(-c2ccc3c(N4CCN(c5ccc(Cc6ccccc6)cn5)CC4)cnn3c2)cn1 [Compound 249, 3-[4-(5-benzylpyridin-2-yl)piperazin-1-yl]-6-(1-methyl-1H-pyrazol-4-yl)pyrazolo[1,5a]pyridine] | 1.64 | 1.26 | 6.40 | – | – | – | – | 10.6 | – |
| Cn1cc(-c2ccc3c(N4CCN(c5ncc(C(O)C6CCCCC6)cn5)CC4)cnn3c2)cn1 (centres unmarked) [Compound 61, cyclohexyl(2-{4-[6-(1-methyl-1H-pyrazol-4-yl)pyrazolo[1,5-a]pyridin-3-yl]piperazin-1-yl}pyrimidin-5-yl)methanol] | 9.88 | 0.00526 | 10.09 | – | – | 2.36 | – | – | – |
| Cn1cc(-c2ccc3c(N4CCN(c5ncc(C(C)(N)c6ccc(F)cc6)cn5)CC4)cnn3c2)cn1 (centres unmarked) [Compound 35, 1-(4-fluorophenyl)-1-(2-{4-[6-(1-methyl-1H-pyrazol-4-yl)pyrazolo[1,5-a]pyridin-3-yl]piperazin-1-yl}pyrimidin-5-yl)ethanamine] | 1.69 | 2.09 | 7.17 | 3.57 | – | – | 5.01 | – | – |
| COc1cccc(Cc2cnc(N3CCN(c4cnn5cc(-c6cnn(C)c6)ccc45)CC3)nc2)c1 [Compound 54, 3-{4-[5-(3-methoxybenzyl)pyrimidin-2-yl]piperazin-1-yl}-6-(1-methyl-1H-pyrazol-4-yl)pyrazolo[1,5-a]pyridine] | 2.14 | 0.63 | 6.81 | – | – | 1.24 | – | 3.48 | – |
| Cn1cc(-c2ccc3c(N4CCN(C(=O)CCc5ccccc5)CC4)cnn3c2)cn1 [Compound 1, 6-(1-methyl-1H-pyrazol-4-yl)-3-[4-(3-phenylpropanoyl)piperazin-1-yl]pyrazolo[1,5-a]pyridine] | 9.82 | 4.01 | 5.25 | 2.94 | – | – | 1.06 | – | – |

More lines, main results first:

| MBP Fold Induction (Over vehicle) [1] | IC50 (PDGFRα) [µM] | GPR17 Fold Induction (Over Vehicle; 3 μM) [3] | GPR17 Fold Induction (Over Vehicle; 5 μM) [3] | IC50 Values on PDGFRα Kinase Inhibition, IC50 (nM) (PDGFRα) | SMILES | fold induction at 3 mg/kg [2] | fold induction at 3.3 mg/kg [2] | fold induction at 30 mg/kg [2] | fold induction at 10 mg/kg [2] |
| --- | --- | --- | --- | --- | --- | --- | --- | --- | --- |
| 8.37 | 0.208 | 5.36 | – | – | Cn1cc(-c2ccc3c(N4CCN(C(=O)N5CCC[C@@H]5c5ccc(Cl)cc5)CC4)cnn3c2)cn1 [Compound 277, 3-(4-{[(2R)-2-(4-chlorophenyl)pyrrolidin-1-yl]carbonyl}piperazin-1-yl)-6-(1-methyl-1H-pyrazol-4-yl)pyrazolo[1,5-a]pyridine] | 0.96 | – | – | – |
| 18.49 | 0.145 | 9.00 | – | – | C[C@@H](OC(=O)N1CCN(c2cnn3cc(-c4cnn(C)c4)ccc23)CC1)c1ccc2ccccc2c1 [Compound 312, (1R)-1-(2-naphthyl)ethyl 4-[6-(1-methyl-1H-pyrazol-4-yl)pyrazolo[1,5-a]pyridin-3-yl]piperazine-1-carboxylate] | 1.53 | – | – | – |
| 10.47 | 0.0391 | 5.77 | – | – | C[C@@H](OC(=O)N1CCN(c2cnn3cc(-c4cnn(C)c4)ccc23)CC1)c1ccc(Cl)c(Cl)c1 [Compound 311, (1R)-1-(3,4-dichlorophenyl)ethyl 4-[6-(1-methyl-1H-pyrazol-4-yl)pyrazolo[1,5-a]pyridin-3-yl]piperazine-1-carboxylate] | 2.52 | – | – | – |
| 13.54 | 0.138 | 5.70 | – | – | C[C@@H](OC(=O)N1CCN(c2cnn3cc(-c4cnn(C)c4)ccc23)CC1)c1cccc2ccccc12 [Compound 269, (1R)-1-(1-naphthyl)ethyl 4-[6-(1-methyl-1H-pyrazol-4-yl)pyrazolo[1,5-a]pyridin-3-yl]piperazine-1-carboxylate] | 0.91 | – | – | – |
| 34.99 | 0.194 | 9.10 | – | – | Cn1cc(-c2ccc3c(N4CCN(C(=O)OCc5ccc(C#N)cc5)CC4)cnn3c2)cn1 [Compound 316, 4-cyanobenzyl 4-[6-(1-methyl-1H-pyrazol-4-yl)pyrazolo[1,5-a]pyridin-3-yl]piperazine-1-carboxylate] | 2.36 | – | – | – |
| 20.78 | – | 7.72 | – | BLQ | CC(OC(=O)N1CCN(c2cnn3cc(-c4cnn(C)c4)ccc23)CC1)c1ccc(Cl)cc1 (centres unmarked) [Compound 265, 1-(4-chlorophenyl)ethyl 4-(6-(1-methyl-1H-pyrazol-4-yl)pyrazolo[1,5-a]pyridin-3-yl)piperazine-1-carboxylate] | 7.92 | – | – | – |
| 16.36 | 0.803 | 9.21 | – | – | CC(c1ccc(F)cc1)c1cnc(N2CCN(c3cnn4cc(-c5cnn(C)c5)ccc34)CC2)nc1 (centres unmarked) [Compound 258, 3-(4-(5-(1-(4-fluorophenyl)ethyl)pyrimidin-2-yl)piperazin-1-yl)-6-(1-methyl-1H-pyrazol-4-yl)pyrazolo[1,5-a]pyridine] | 2.82 | – | – | – |
| 40.13 | 0.865 | 6.11 | – | – | Cn1cc(-c2ccc3c(N4CCN(C(=O)OCc5cccc(C#N)c5)CC4)cnn3c2)cn1 [Compound 272, 3-cyanobenzyl 4-[6-(1-methyl-1H-pyrazol-4-yl)pyrazolo[1,5-a]pyridin-3-yl]piperazine-1-carboxylate] | 2.47 | – | – | 5.93 |
